What was measured:
Assay type in all cases: cell-based, human
PDCD4 [1] = assay: PDCD4 mRNA expression by q-PCR; conditions: 72 hrs post siRNA transfection
Experimental: (§1) Cell Culture and siRNA Transfection: The human glioma cell lines U87MG, U373, A172, T98G, GOS3 and SW1088 were obtained from ATCC; Rockville, Md., cultured in DMEM (Sigma-Aldrich, Switzerland) supplemented with 10% (v/v) FCS (Sigma-Aldrich), 3.7 g/l sodium bicarbonate (Sigma-Aldrich), Ciprofloxacin 10 μg/ml and 5% CO2 at 37° C. For transfection, 2×10^5 cells were seeded per 25 cm^2 flask. After 24 hrs, cells were transfected with FAT1 siRNA and universal medium GC control siRNA (Invitrogen) according to the manufacturer's protocol with a final concentration of 20 nM of siRNA using LIPOFECTAMINE 2000 (Invitrogen) and Opti-Mem media (Invitrogen). After 4 hrs of siRNA transfection, the media was supplemented with DMEM containing 2×FCS. The ability of each siRNA to mediate knockdown of FAT1 mRNA was confirmed using qRT-PCR. Photomicrographs of the cells were taken using an inverted phase contrast microscope (Nikon TMS, Phase contrast microscope, Japan). For simultaneous knockdown of FAT1 and PDCD4, siRNA from Dharmacon were used. Transfection was performed as earlier with 50 nM of FAT1 siRNA along with 50 nM of PDCD4 siRNA or 50 nM of control siRNA.
cDNA Synthesis and Quantitative PCR: Total RNA was isolated from cells at appropriate time point (vide supra) using TRIzol reagent (Invitrogen), quantified using a Nanodrop ND-1000 spectrophotometer. DNase (Ambion) treatment was given and 1 μg of total RNA was used for cDNA synthesis, done by Fermentas RevertAid™ First Strand cDNA Synthesis Kit using random decamers. PCR reactions were carried in 10 μL reaction volumes (2.5 μL of 1:5 diluted cDNA, […] of primer mix (0.5 pmol/μL as final concentration of each primer), 1 μL, of 10× Taq Buffer A, 0.5 U Taq polymerase (Bangalore Genei, Bangalore, India), 1 μL Syto9 (Invitrogen), 0.25 μL of 10 mM dNTPs (MBI Fermentas, Thermo Fisher Scientific, Rockford, Ill. USA), and 4.6 μL of nuclease-free water (Ambion) on a RotorGene6000 Real Time PCR in triplicates. The detail of the primers used is given in Table 1. ΔCt values were defined as target gene Ct minus 18s RNA Ct and averaged for each triplicate sample. Statistical significance was determined by Student's t-test analysis (P<0.05).

VEGF-C = VEGF-C mRNA expression by q-PCR; conditions: U87MGsiFAT1 cells
Experimental: as §1
cDNA Synthesis and Quantitative PCR: Total RNA was isolated from cells at appropriate time point (vide supra) using TRIzol reagent (Invitrogen), quantified using a Nanodrop ND-1000 spectrophotometer. […]

PGE2 = PGE2 ELISA of conditioned medium; conditions: U87MGsiFAT1 vs siControl, 72 hrs, p<0.01
Experimental: PGE2 ELISA: U87MG cells (2.5×10^5 cells/flask) were plated into 25 cm^2 flask. Transfection was performed on day 1 and 72 hrs later, the conditioned medium was collected and concentrated using Centricon YM-30. The concentration of PGE2 secreted into the medium was measured with an EIA kit for human PGE2 (Cayman Chemical, Michigan, USA).

PDCD4 [2] = assay: Western blot PDCD4 protein; conditions: U87MG, A172, U373MG and T98G, vs siControl
Experimental: (§2) Western Blotting Analyses: Cells were lysed in triple detergent buffer containing protease and phosphatase inhibitors (Sigma Aldrich), lysates were quantified by BCA kit (Pierce, Thermo Fisher Scientific, Rockford, Ill. USA) and electrophoresed in 10% SDS-PAGE and electroblotted on nitrocellulose membrane (Millipore, Billerica, Mass., USA). Membrane was blocked with 5% bovine serum albumin (BSA) in 1×TBS at 4° C. for overnight. Primary and secondary antibody was diluted in 5% BSA and 0.1% tween-20 in 1×TBS. Blot was incubated in primary antibody overnight at 4° C. followed by secondary antibody incubation for 2 hrs at room temperature. Blot was developed by BCIP-NBT (Promega, Madison, Wis., USA) and captured using Alpha Imager EP software.

c-jun = assay: Western blot total c-jun; conditions: U87MGsiFAT1 vs siControl
Experimental: as §2

phospho-Akt = assay: Western blot phospho-Akt; conditions: U87MG cells after FAT1 knockdown
Experimental: FIG. 9: FAT1 knockdown results in increased p-akt level in U87MG cell line; Akt is known to negatively regulate PDCD4 expression; therefore, the effect of FAT1 knockdown on the phosphorylation status of Akt in U87MG cells was checked by Western blot analysis using β-actin as a loading control.
as §2

Substance: siFAT1: FAT1 specific siRNA (Invitrogen), FAT Stealth RNAi siRNA-I (HSS103567), used for further experiments (sense CCCAACACACCUGUGGUCAUGGUAA; antisense UUACCAUGACCACAGGUGUGUUGGG; Stealth modification, chemistry not fully specified; listed as Homo sapiens)
- increase in PDCD4 mRNA expression (PDCD4 [1]; A172, vs siControl): 2.8 fold
- increase in PDCD4 mRNA expression (PDCD4 [1]; T98G, vs siControl): 3.5 fold
- increase in PDCD4 mRNA expression (PDCD4 [1]; U87MG, vs siControl): 2.4 fold
- increase in PDCD4 mRNA expression (PDCD4 [1]; U373MG, vs siControl): 3.2 fold
- increase in PDCD4 mRNA expression (PDCD4 [1]; all the GBM cell lines (U87MG, A172, U373 and T98)): more than two fold
- decrease in VEGF-C mRNA expression (VEGF-C): more than 10 fold
- reduction of PGE2 secreted into the medium (PGE2): > 2 fold
- PDCD4 protein level (PDCD4 [2]): increased
- total c-jun protein level (c-jun): reduction
- phospho-Akt level (phospho-Akt): increase

Source: patent US9556437B2, “FAT1 gene in cancer and inflammation” (DEPARTMENT OF BIOTECHNOLOGY (DBT), priority 2012, dated 2017)
